Assay results as given in the Kinase Knowledgebase extract (Sharma et al. 2016).
Several values for one entry are separate records, joined by “and”; a condition that tells them apart may be missing. Equal values may be shown once.

Assays:
PIK3CG (human) [1] = molecular target: PIK3CG (human) (UniProt P48736); test: Cell-Based Assay; details: u937
PIK3CG (human) [2] = molecular target: PIK3CG (human) (UniProt P48736); test: Enzyme Assay
PIK3CB (Human) = PIK3CB (Human) (UniProt P42338); test: Enzyme Assay
PIK3CD (Human) = PIK3CD (Human) (UniProt O00329); test: Enzyme Assay
PIK3CA (human) = PIK3CA (human) (UniProt P42336); test: Enzyme Assay
PIK3CG (human) [3] = molecular target: PIK3CG (human) (UniProt P48736); test: Cell-Based Assay; details: u937; remark: listed apart in the source

Chain of PIK3CA (human) (P42336 whole entry, looked up): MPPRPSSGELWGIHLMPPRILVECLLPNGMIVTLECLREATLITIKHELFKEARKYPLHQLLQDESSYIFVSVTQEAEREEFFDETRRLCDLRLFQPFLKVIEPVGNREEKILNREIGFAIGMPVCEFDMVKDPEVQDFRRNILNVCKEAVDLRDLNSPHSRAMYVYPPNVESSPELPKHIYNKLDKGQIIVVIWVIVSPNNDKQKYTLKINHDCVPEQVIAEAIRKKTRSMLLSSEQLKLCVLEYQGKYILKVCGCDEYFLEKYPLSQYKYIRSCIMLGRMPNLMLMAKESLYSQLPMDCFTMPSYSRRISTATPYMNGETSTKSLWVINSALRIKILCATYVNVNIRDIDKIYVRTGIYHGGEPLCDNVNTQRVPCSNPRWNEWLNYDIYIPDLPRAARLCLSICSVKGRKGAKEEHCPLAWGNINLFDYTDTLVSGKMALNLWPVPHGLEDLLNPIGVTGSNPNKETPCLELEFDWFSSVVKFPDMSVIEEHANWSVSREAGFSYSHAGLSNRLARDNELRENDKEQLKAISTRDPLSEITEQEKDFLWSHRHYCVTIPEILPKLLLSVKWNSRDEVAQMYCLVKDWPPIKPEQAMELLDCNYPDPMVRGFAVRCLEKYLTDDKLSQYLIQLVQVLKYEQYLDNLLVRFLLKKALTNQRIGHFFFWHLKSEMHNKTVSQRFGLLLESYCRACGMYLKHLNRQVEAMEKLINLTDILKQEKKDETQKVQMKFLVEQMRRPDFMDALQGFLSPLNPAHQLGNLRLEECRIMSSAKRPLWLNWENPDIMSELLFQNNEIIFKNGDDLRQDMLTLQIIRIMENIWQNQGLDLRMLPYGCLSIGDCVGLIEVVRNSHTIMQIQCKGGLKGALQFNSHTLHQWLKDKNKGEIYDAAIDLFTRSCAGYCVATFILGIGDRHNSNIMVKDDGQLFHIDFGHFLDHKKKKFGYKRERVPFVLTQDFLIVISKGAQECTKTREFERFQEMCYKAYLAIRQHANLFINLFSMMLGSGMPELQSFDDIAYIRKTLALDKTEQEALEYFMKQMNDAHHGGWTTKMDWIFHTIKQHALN
Chain of PIK3CG (human) (P48736 whole entry, looked up): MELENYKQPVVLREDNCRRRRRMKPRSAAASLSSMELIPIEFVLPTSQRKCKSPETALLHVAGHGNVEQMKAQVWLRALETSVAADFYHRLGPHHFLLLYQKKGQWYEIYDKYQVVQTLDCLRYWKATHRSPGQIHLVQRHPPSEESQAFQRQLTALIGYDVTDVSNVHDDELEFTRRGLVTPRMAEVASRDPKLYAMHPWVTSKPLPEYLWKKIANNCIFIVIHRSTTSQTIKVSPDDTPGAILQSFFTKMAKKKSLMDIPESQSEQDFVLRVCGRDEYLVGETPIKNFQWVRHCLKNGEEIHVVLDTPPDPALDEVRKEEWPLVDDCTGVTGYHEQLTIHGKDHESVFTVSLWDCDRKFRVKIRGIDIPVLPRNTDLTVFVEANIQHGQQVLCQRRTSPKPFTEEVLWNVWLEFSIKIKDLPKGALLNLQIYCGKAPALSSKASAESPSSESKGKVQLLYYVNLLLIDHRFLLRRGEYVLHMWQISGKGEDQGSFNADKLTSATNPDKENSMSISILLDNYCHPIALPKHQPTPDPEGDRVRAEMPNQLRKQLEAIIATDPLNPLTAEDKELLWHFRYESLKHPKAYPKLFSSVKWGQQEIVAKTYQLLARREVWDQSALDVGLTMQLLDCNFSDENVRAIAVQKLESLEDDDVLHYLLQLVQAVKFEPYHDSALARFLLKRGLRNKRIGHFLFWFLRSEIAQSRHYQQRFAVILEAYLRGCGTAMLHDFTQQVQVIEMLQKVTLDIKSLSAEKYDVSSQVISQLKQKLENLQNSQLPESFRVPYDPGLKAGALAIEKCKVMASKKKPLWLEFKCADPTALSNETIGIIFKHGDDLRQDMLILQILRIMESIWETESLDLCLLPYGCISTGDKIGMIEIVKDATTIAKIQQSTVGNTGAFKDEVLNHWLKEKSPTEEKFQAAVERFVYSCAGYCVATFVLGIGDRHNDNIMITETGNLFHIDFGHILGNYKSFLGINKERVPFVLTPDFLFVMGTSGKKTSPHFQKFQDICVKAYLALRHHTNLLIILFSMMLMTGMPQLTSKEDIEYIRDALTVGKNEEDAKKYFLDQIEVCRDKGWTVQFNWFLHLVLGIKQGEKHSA
Chain of PIK3CD (Human) (O00329 whole entry, looked up): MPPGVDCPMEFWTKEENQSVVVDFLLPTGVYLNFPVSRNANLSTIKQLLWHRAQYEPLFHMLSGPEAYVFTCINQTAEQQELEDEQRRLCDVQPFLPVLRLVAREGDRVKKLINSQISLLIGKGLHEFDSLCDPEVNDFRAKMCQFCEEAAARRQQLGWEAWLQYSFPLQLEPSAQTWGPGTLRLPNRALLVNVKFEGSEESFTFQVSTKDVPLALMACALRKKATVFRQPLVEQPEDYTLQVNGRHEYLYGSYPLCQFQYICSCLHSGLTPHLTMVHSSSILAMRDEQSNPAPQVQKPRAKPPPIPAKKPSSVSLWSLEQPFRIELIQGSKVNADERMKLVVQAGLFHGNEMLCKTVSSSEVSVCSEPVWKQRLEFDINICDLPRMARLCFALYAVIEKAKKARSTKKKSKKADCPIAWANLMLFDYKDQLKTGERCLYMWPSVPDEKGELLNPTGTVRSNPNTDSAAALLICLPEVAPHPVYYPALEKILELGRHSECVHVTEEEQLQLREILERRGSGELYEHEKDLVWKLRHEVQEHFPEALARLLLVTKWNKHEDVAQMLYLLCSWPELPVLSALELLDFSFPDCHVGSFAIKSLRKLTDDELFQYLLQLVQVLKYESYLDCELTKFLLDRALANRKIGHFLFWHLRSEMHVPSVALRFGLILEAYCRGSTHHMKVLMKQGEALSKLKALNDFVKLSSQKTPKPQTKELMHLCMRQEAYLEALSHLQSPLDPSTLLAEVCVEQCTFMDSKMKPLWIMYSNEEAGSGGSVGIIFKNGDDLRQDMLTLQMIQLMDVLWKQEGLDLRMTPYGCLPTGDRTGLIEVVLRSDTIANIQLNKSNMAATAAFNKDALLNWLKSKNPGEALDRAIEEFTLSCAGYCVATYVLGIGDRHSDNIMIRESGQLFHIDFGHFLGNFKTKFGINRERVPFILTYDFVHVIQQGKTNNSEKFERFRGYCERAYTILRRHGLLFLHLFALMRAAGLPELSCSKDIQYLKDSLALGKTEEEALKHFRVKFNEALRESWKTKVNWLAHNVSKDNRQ
Chain of PIK3CB (Human) (P42338 whole entry, looked up): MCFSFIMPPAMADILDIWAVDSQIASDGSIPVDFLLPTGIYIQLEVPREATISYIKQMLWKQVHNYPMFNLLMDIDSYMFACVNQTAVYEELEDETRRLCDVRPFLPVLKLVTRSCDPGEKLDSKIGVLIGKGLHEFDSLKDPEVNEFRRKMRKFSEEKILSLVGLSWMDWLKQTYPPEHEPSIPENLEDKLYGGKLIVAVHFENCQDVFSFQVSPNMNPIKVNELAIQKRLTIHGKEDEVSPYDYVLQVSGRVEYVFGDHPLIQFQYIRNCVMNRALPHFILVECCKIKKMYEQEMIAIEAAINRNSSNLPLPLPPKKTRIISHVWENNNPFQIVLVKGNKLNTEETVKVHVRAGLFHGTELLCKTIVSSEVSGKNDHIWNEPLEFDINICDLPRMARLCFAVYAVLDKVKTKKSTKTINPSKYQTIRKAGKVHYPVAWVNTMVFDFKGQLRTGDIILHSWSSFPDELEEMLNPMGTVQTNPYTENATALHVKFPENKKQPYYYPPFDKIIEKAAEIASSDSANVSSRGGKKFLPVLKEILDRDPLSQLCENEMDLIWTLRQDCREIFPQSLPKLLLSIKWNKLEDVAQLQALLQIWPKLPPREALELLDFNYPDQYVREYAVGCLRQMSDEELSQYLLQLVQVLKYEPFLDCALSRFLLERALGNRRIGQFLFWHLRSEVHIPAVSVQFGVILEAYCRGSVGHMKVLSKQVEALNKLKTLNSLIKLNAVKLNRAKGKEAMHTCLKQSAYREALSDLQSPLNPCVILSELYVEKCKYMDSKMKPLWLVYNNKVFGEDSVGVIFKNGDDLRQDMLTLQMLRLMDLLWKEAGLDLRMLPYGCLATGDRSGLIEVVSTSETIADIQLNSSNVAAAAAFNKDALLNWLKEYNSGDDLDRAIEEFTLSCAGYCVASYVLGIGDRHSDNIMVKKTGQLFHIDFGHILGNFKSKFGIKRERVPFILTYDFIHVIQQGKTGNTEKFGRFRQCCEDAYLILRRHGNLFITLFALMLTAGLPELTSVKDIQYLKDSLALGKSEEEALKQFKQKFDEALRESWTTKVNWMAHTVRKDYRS

Compound	IC50 (PIK3CG (human) [1])	IC50 (PIK3CG (human) [2]) [nM]	IC50 (PIK3CB (Human)) [nM]	IC50 (PIK3CD (Human)) [nM]	IC50 (PIK3CA (human)) [nM]	IC50 (PIK3CG (human) [3]) [nM]
Cc1ccc(S(=O)(=O)N[C@H]2CC3(C[C@@H](O)C3)C2)cc1-c1cnc(N)c(-c2cn(C)nc2C)n1 (some centres not stated)	40 nM					
CN[C@@H]1CCC[C@H]1NS(=O)(=O)c1ccc(C)c(-c2cnc(N)c(-c3ccnc(C)c3)n2)c1		110	7500	910	730	
Cc1ccc(S(=O)(=O)NCC2(O)CCOCC2)cc1-c1cnc(N)c(-n2cncn2)n1	387 nM	94	1460	1500	660	
CN[C@H]1CCC[C@@H]1NS(=O)(=O)c1ccc(C)c(-c2cnc(N)c(-c3ccnc(C)c3)n2)c1		820	2700	4500	1600	
Cc1ccc(S(=O)(=O)NCCC(C)(C)O)cc1-c1cnc(N)c(-c2nc(C3CC3)no2)n1	129 nM	12	> 9100	292	200	
Cc1ccc(S(=O)(=O)NC[C@H]2CNC[C@@H]2O)cc1-c1cnc(N)c(-n2cncn2)n1		140	730	2400	960	
Cc1ccc(S(=O)(=O)NCC[C@@H](O)C(F)(F)F)cc1-c1cnc(N)c(-c2cn(C)nc2C)n1.Cc1ccc(S(=O)(=O)NCC[C@H](O)C(F)(F)F)cc1-c1cnc(N)c(-c2cn(C)nc2C)n1	60 nM					337
Cc1ccc(S(=O)(=O)NC[C@H]2CCC(C)(C)O2)cc1-c1cnc(N)c(-n2cncn2)n1	411 nM					
Cc1ncc(-c2nc(-c3cc(S(=O)(=O)NCC4COCCN4C)ccc3C)cnc2N)s1 (configuration not stated)	145 nM					
Cc1ccc(S(=O)(=O)N[C@H]2CC[C@@](C)(O)CC2)cc1-c1cnc(N)c(-n2cncn2)n1	103 nM and 135 nM					
Cc1cc(-c2nc(-c3cc(S(=O)(=O)NCC4CCN(C)C4)ccc3C)cnc2N)ccn1 (configuration not stated)	> 10000 nM					
Cc1cc(-c2nc(-c3cc(S(=O)(=O)N[C@H]4CC[C@H](N)CC4)ccc3C)cnc2N)ccn1	63 nM	51	5220	1700	180	
Cc1ncc(-c2nc(-c3cc(S(=O)(=O)NCC(F)(F)F)ccc3C)cnc2N)s1		5	990	40	40	
Cc1ccc(S(=O)(=O)NCC(C)(C)CO)cc1-c1cnc(N)c(-c2nc(C3CC3)no2)n1		81	> 9100	330	1100	
Cc1ccc(S(=O)(=O)NC[C@@H]2COCCN2C)cc1-c1cnc(N)c(-c2cn(C)nc2C)n1.Cc1ccc(S(=O)(=O)NC[C@H]2COCCN2C)cc1-c1cnc(N)c(-c2cn(C)nc2C)n1						241
Cc1ccc(S(=O)(=O)NCC(C)(C)O)cc1-c1cnc(N)c(-c2nc(C(C)C)no2)n1		61	> 10000	1700	1200	
